According to article PMC5218480 (PLoS ONE, 2017):

System: MV-4-11 cells
Assay: Gene expression microarray analysis (Affymetrix PrimeView) and GSEA
Assay type: cell-based, human
Design: RFU PODN (11730768_x_at) / Fold change /veh PODN (11730768_x_at) / RFU LINC00158 (11744669_a_at) / Fold change /veh LINC00158 (11744669_a_at) / RFU DUSP10 (11751237_a_at) / Fold change /veh DUSP10 (11751237_a_at) / RFU ID3 (11757404_x_at) / Fold change /veh ID3 (11757404_x_at) / RFU PLEKHG5 (11737974_s_at) / Fold change /veh PLEKHG5 (11737974_s_at) / RFU LRRC4B (11730491_at) / Fold change /veh LRRC4B (11730491_at) / RFU GIMAP4 (11747438_a_at) / Fold change /veh GIMAP4 (11747438_a_at) / RFU KRT8 (11758183_x_at) / Fold change /veh KRT8 (11758183_x_at) / RFU CNN1 (11734310_a_at) / Fold change /veh CNN1 (11734310_a_at) / RFU VPS37D (11726825_at) / Fold change /veh VPS37D (11726825_at) / RFU C10orf10 (11716522_x_at) / Fold change /veh C10orf10 (11716522_x_at) / RFU KIR2DL2 /// KIR2DL4 /// KIR2DL5A /// KIR2DL5B /// KIR2DS1 /// KIR2DS2 /// KIR2DS3 /// KIR2DS4 /// KIR3DL3 /// KIR3DL3 /// KIR3DS1 (11738374_at) / Fold change /veh KIR2DL2 /// KIR2DL4 /// KIR2DL5A /// KIR2DL5B /// KIR2DS1 /// KIR2DS2 /// KIR2DS3 /// KIR2DS4 /// KIR3DL3 /// KIR3DL3 /// KIR3DS1 (11738374_at) / RFU C1QL1 (11718748_at) / Fold change /veh C1QL1 (11718748_at) / RFU TMPRSS4 (11747572_a_at) / Fold change /veh TMPRSS4 (11747572_a_at) / RFU HAMP (11756126_x_at) / Fold change /veh HAMP (11756126_x_at) / RFU RNFT2 (11725882_a_at) / Fold change /veh RNFT2 (11725882_a_at) / RFU NR4A2 (11747474_a_at) / Fold change /veh NR4A2 (11747474_a_at) / RFU ABCC12 (11746883_a_at) / Fold change /veh ABCC12 (11746883_a_at) / RFU TMEM136 (11760407_x_at) / Fold change /veh TMEM136 (11760407_x_at) / RFU CLDN22 /// WWC2 (11732394_at) / Fold change /veh CLDN22 /// WWC2 (11732394_at) / RFU HLA-DPB1 (11760878_x_at) / Fold change /veh HLA-DPB1 (11760878_x_at) / RFU SPINT1 (11716480_a_at) / Fold change /veh SPINT1 (11716480_a_at) / RFU GAP43 (11754022_s_at) / Fold change /veh GAP43 (11754022_s_at) / RFU A4GNT (11735810_at) / Fold change /veh A4GNT (11735810_at) / RFU PRB3 (11715151_x_at) / Fold change /veh PRB3 (11715151_x_at) / RFU TUBB4B (11761932_at) / Fold change /veh TUBB4B (11761932_at) / RFU CAPN14 (11732068_a_at) / Fold change /veh CAPN14 (11732068_a_at) / RFU TMCC2 (11721928_a_at) / Fold change /veh TMCC2 (11721928_a_at) / RFU IRGQ (11745062_a_at) / Fold change /veh IRGQ (11745062_a_at) / RFU FAM174B (11720279_a_at) / Fold change /veh FAM174B (11720279_a_at) / RFU TMPRSS4 (11748680_a_at) / Fold change /veh TMPRSS4 (11748680_a_at) / RFU FAM212B (11763350_a_at) / Fold change /veh FAM212B (11763350_a_at) / RFU PLEKHG5 (11743358_a_at) / Fold change /veh PLEKHG5 (11743358_a_at) / RFU ZSCAN30 (11745921_a_at) / Fold change /veh ZSCAN30 (11745921_a_at) / RFU CMKLR1 (11741424_a_at) / Fold change /veh CMKLR1 (11741424_a_at) / RFU LOC101060620 /// MAPK8IP1 (11723275_at) / Fold change /veh LOC101060620 /// MAPK8IP1 (11723275_at) / RFU SPTSSB (11747773_x_at) / Fold change /veh SPTSSB (11747773_x_at) / RFU PRSS12 (11739890_at) / Fold change /veh PRSS12 (11739890_at) / RFU BIN1 (11741810_x_at) / Fold change /veh BIN1 (11741810_x_at) / RFU WNT11 (11732464_a_at) / Fold change /veh WNT11 (11732464_a_at) / RFU C10orf10 (11716521_a_at) / Fold change /veh C10orf10 (11716521_a_at) / RFU C5orf56 (11738089_at) / Fold change /veh C5orf56 (11738089_at) / RFU CYB561 (11721691_x_at) / Fold change /veh CYB561 (11721691_x_at) / RFU ANKRD19P (11752326_a_at) / Fold change /veh ANKRD19P (11752326_a_at) / RFU OR2T12 /// OR2T33 /// OR2T8 (11738714_s_at) / Fold change /veh OR2T12 /// OR2T33 /// OR2T8 (11738714_s_at) / RFU VCAN (11748164_a_at) / Fold change /veh VCAN (11748164_a_at) / RFU JSRP1 (11732532_at) / Fold change /veh JSRP1 (11732532_at) / RFU KRTAP10-11 (11738290_x_at) / Fold change /veh KRTAP10-11 (11738290_x_at) / RFU MYO3A (11730013_a_at) / Fold change /veh MYO3A (11730013_a_at) / RFU EBF3 (11725865_a_at) / Fold change /veh EBF3 (11725865_a_at) / RFU CAMK2N1 (11719241_x_at) / Fold change /veh CAMK2N1 (11719241_x_at) / RFU C5orf56 (11738088_a_at) / Fold change /veh C5orf56 (11738088_a_at) / RFU OLFML3 (11715873_a_at) / Fold change /veh OLFML3 (11715873_a_at) / RFU LOC100653217 /// NTM (11731650_a_at) / Fold change /veh LOC100653217 /// NTM (11731650_a_at) / RFU MAPK11 (11762145_a_at) / Fold change /veh MAPK11 (11762145_a_at) / RFU FIZ1 (11724087_x_at) / Fold change /veh FIZ1 (11724087_x_at) / RFU OASL (11726364_x_at) / Fold change /veh OASL (11726364_x_at) / RFU SOX15 (11748057_x_at) / Fold change /veh SOX15 (11748057_x_at) / RFU CD79A (11719716_a_at) / Fold change /veh CD79A (11719716_a_at) / RFU HIST1H1D (11736915_at) / Fold change /veh HIST1H1D (11736915_at) / RFU CASKIN2 (11723855_a_at) / Fold change /veh CASKIN2 (11723855_a_at) / RFU LOC730098 (11760151_x_at) / Fold change /veh LOC730098 (11760151_x_at) / RFU OR4N2 (11742367_at) / Fold change /veh OR4N2 (11742367_at) / RFU PRRT2 (11749266_a_at) / Fold change /veh PRRT2 (11749266_a_at) / RFU SNX32 (11753110_a_at) / Fold change /veh SNX32 (11753110_a_at) / RFU CDHR5 (11726645_a_at) / Fold change /veh CDHR5 (11726645_a_at) / RFU RCAN1 (11760418_a_at) / Fold change /veh RCAN1 (11760418_a_at) / RFU FAM167A (11723789_a_at) / Fold change /veh FAM167A (11723789_a_at) / RFU FAM26E (11764081_at) / Fold change /veh FAM26E (11764081_at) / RFU ISYNA1 (11749810_s_at) / Fold change /veh ISYNA1 (11749810_s_at) / RFU ACY1 (11761880_at) / Fold change /veh ACY1 (11761880_at) / RFU 11764098_at / Fold change /veh 11764098_at / RFU SAMD14 (11745864_x_at) / Fold change /veh SAMD14 (11745864_x_at) / RFU NPB (11741838_a_at) / Fold change /veh NPB (11741838_a_at) / RFU TMPRSS6 (11731388_a_at) / Fold change /veh TMPRSS6 (11731388_a_at) / RFU KRTAP10-2 (11738614_at) / Fold change /veh KRTAP10-2 (11738614_at) / RFU ARHGAP8 /// PRR5-ARHGAP8 (11727945_x_at) / Fold change /veh ARHGAP8 /// PRR5-ARHGAP8 (11727945_x_at) / RFU KRTAP5-7 /// NADSYN1 (11734609_at) / Fold change /veh KRTAP5-7 /// NADSYN1 (11734609_at) / RFU RASL12 (11751679_a_at) / Fold change /veh RASL12 (11751679_a_at) / RFU CDKN2B (11736163_a_at) / Fold change /veh CDKN2B (11736163_a_at) / RFU PRF1 (11729649_at) / Fold change /veh PRF1 (11729649_at) / RFU, ZNF638 /// ZNF638-IT1 / Fold change vs veh, ZNF638 /// ZNF638-IT1 / RFU, PANK3 / Fold change vs veh, PANK3 / RFU, SH3YL1 / Fold change vs veh, SH3YL1 / RFU, ZEB2 / Fold change vs veh, ZEB2 / RFU, NRIP1 / Fold change vs veh, NRIP1 / RFU, PTTG1IP / Fold change vs veh, PTTG1IP / RFU, CAPN2 / Fold change vs veh, CAPN2 / RFU, MED14 / Fold change vs veh, MED14 / RFU, SNORA58 / Fold change vs veh, SNORA58 / RFU, C1orf63 / Fold change vs veh, C1orf63 / RFU, LRRFIP1 / Fold change vs veh, LRRFIP1 / RFU, NDUFAF7 / Fold change vs veh, NDUFAF7 / RFU, SLC12A2 / Fold change vs veh, SLC12A2 / RFU, IBTK / Fold change vs veh, IBTK / RFU, ESF1 / Fold change vs veh, ESF1 / Fold change vs veh, TMEM50B / RFU, TAOK1 / Fold change vs veh, TAOK1 / RFU, ACBD3 / Fold change vs veh, ACBD3 / RFU, TMA16 / Fold change vs veh, TMA16 / RFU, RWDD3 / Fold change vs veh, RWDD3 / RFU, BCAT1 / Fold change vs veh, BCAT1 / RFU, EDEM3 / Fold change vs veh, EDEM3 / RFU, TMEM33 / Fold change vs veh, TMEM33 / RFU, WDR75 / Fold change vs veh, WDR75 / RFU, AHCTF1 / Fold change vs veh, AHCTF1 / RFU, TFRC / Fold change vs veh, TFRC / RFU, ZDHHC17 / Fold change vs veh, ZDHHC17 / RFU, NOM1 / Fold change vs veh, NOM1 / RFU, ARL8B / Fold change vs veh, ARL8B / RFU, ZBTB11 / Fold change vs veh, ZBTB11 / RFU, TAMM41 / Fold change vs veh, TAMM41 / RFU, KIAA1704 /// LOC100996395 / Fold change vs veh, KIAA1704 /// LOC100996395 / RFU, ING1 / Fold change vs veh, ING1 / RFU, TRMT61B / Fold change vs veh, TRMT61B / RFU, FUBP3 / Fold change vs veh, FUBP3 / RFU, TP53 / Fold change vs veh, TP53 / RFU, TNKS2 / Fold change vs veh, TNKS2 / RFU, ZFP14 / Fold change vs veh, ZFP14 / RFU, ACTR2 / Fold change vs veh, ACTR2 / RFU, PPP3R1 / Fold change vs veh, PPP3R1 / RFU, PIK3R1 / Fold change vs veh, PIK3R1 / RFU, HNRNPA1 / Fold change vs veh, HNRNPA1 / RFU, RNF170 / Fold change vs veh, RNF170 / RFU, ZNF28 / Fold change vs veh, ZNF28 / RFU, RNGTT / Fold change vs veh, RNGTT / RFU, OGT / Fold change vs veh, OGT / RFU, BRD1 / Fold change vs veh, BRD1 / RFU, MARS / Fold change vs veh, MARS / RFU, ZNF655 / Fold change vs veh, ZNF655 / RFU, FAHD1 / Fold change vs veh, FAHD1 / RFU, BDP1 / Fold change vs veh, BDP1 / RFU, LRRCC1 / Fold change vs veh, LRRCC1 / RFU, ARID1A / Fold change vs veh, ARID1A / RFU, ZNF146 / Fold change vs veh, ZNF146 / RFU, ZNF330 / Fold change vs veh, ZNF330 / RFU, GPN3 / Fold change vs veh, GPN3 / RFU, C9orf123 / Fold change vs veh, C9orf123 / RFU, N4BP2L2 / Fold change vs veh, N4BP2L2 / RFU, ARFIP1 / Fold change vs veh, ARFIP1 / RFU, FAM179B / Fold change vs veh, FAM179B / RFU, BCL10 / Fold change vs veh, BCL10 / RFU, UHRF1BP1L / Fold change vs veh, UHRF1BP1L / RFU, BET1 / Fold change vs veh, BET1 / RFU, CNOT2 / Fold change vs veh, CNOT2 / RFU, ZNF268 / Fold change vs veh, ZNF268 / Fold change vs veh, ZNF507 / RFU, DGCR2 / Fold change vs veh, DGCR2 / RFU, WDSUB1 / Fold change vs veh, WDSUB1 / Fold change vs veh, HSP90B1 /// MIR3652 / RFU, ADSS / Fold change vs veh, ADSS / RFU, GK / Fold change vs veh, GK / RFU, ZNF148 / Fold change vs veh, ZNF148 / RFU, TAF9 / Fold change vs veh, TAF9 / RFU, SLC1A5 / Fold change vs veh, SLC1A5 / RFU, SLMO2 / Fold change vs veh, SLMO2 / RFU, ABCC4 / Fold change vs veh, ABCC4 / RFU, LOC101060439 /// RAP1B / Fold change vs veh, LOC101060439 /// RAP1B / RFU, RFX7 / Fold change vs veh, RFX7 / RFU, GTPBP10 / Fold change vs veh, GTPBP10 / RFU, CNEP1R1 / Fold change vs veh, CNEP1R1 / RFU, BIVM-ERCC5 /// ERCC5 / Fold change vs veh, BIVM-ERCC5 /// ERCC5 / RFU, ILF3 / Fold change vs veh, ILF3 / RFU 11762660_at / Fold change /veh 11762660_at / RFU VCAN (11757783_s_at) / Fold change /veh VCAN (11757783_s_at) / RFU DDX43 (11728927_at) / Fold change /veh DDX43 (11728927_at) / RFU KRT8 (11758188_x_at) / Fold change /veh KRT8 (11758188_x_at) / RFU NKD1 (11759106_at) / Fold change /veh NKD1 (11759106_at) / RFU SRD5A1 (11742802_a_at) / Fold change /veh SRD5A1 (11742802_a_at) / RFU TPSAB1 /// TPSB2 (11721975_s_at) / Fold change /veh TPSAB1 /// TPSB2 (11721975_s_at) / RFU GSTM3 (11746129_a_at) / Fold change /veh GSTM3 (11746129_a_at) / RFU IL23R (11737362_x_at) / Fold change /veh IL23R (11737362_x_at) / RFU TMEM51 (11727254_a_at) / Fold change /veh TMEM51 (11727254_a_at) / RFU PIWIL2 (11732686_x_at) / Fold change /veh PIWIL2 (11732686_x_at) / RFU ORM1 (11744905_x_at) / Fold change /veh ORM1 (11744905_x_at) / RFU CCDC152 (11743942_at) / Fold change /veh CCDC152 (11743942_at) / RFU ECM1 (11717891_a_at) / Fold change /veh ECM1 (11717891_a_at) / RFU IL23R (11748794_a_at) / Fold change /veh IL23R (11748794_a_at) / RFU TNFAIP8L3 (11732012_x_at) / Fold change /veh TNFAIP8L3 (11732012_x_at) / RFU MBOAT4 (11741988_at) / Fold change /veh MBOAT4 (11741988_at) / RFU 11764193_at / Fold change /veh 11764193_at / RFU TMEM53 (11763286_at) / Fold change /veh TMEM53 (11763286_at) / RFU MAGEB2 (11727129_at) / Fold change /veh MAGEB2 (11727129_at) / RFU TMEM200A (11744735_a_at) / Fold change /veh TMEM200A (11744735_a_at) / RFU CCDC152 (11751479_a_at) / Fold change /veh CCDC152 (11751479_a_at) / RFU FAM211A (11726209_a_at) / Fold change /veh FAM211A (11726209_a_at) / RFU RGS16 (11746705_a_at) / Fold change /veh RGS16 (11746705_a_at) / RFU VCAN (11755009_s_at) / Fold change /veh VCAN (11755009_s_at) / RFU RHOB (11743442_s_at) / Fold change /veh RHOB (11743442_s_at) / RFU RGS16 (11720943_a_at) / Fold change /veh RGS16 (11720943_a_at) / RFU RGS16 (11720944_at) / Fold change /veh RGS16 (11720944_at) / RFU, VPS4B / Fold change vs veh, VPS4B / RFU, CREB1 / Fold change vs veh, CREB1 / RFU, DNAJC13 / Fold change vs veh, DNAJC13 / RFU, GNAQ / Fold change vs veh, GNAQ / RFU, CDK5R1 / Fold change vs veh, CDK5R1 / RFU, ZRANB3 / Fold change vs veh, ZRANB3 / RFU, CUL4A / Fold change vs veh, CUL4A / RFU, CCNY / Fold change vs veh, CCNY / RFU, UFL1 / Fold change vs veh, UFL1 / RFU, COG3 / Fold change vs veh, COG3 / RFU, DIAPH2 / Fold change vs veh, DIAPH2 / RFU, SKA2 / Fold change vs veh, SKA2 / RFU, AFF3 / Fold change vs veh, AFF3 / RFU, LMF1 / Fold change vs veh, LMF1 / RFU, IPO11 / Fold change vs veh, IPO11 / RFU, DFFB / Fold change vs veh, DFFB / RFU, FOXP1 / Fold change vs veh, FOXP1 / RFU, CARD8 / Fold change vs veh, CARD8 / RFU, STRN3 / Fold change vs veh, STRN3 / RFU, ADK / Fold change vs veh, ADK / RFU, RASSF2 / Fold change vs veh, RASSF2 / RFU, WIPF1 / Fold change vs veh, WIPF1 / RFU, LARP1B / Fold change vs veh, LARP1B / RFU, RASA1 / Fold change vs veh, RASA1 / RFU, RB1 / Fold change vs veh, RB1 / RFU, PPFIA1 / Fold change vs veh, PPFIA1 / RFU, MAT2A / Fold change vs veh, MAT2A / RFU, CCT5 / Fold change vs veh, CCT5 / RFU, WDR92 / Fold change vs veh, WDR92 / RFU, CUX1 / Fold change vs veh, CUX1 / RFU, TTC7A / Fold change vs veh, TTC7A / RFU, TMEM135 / Fold change vs veh, TMEM135 / RFU, DEPTOR / Fold change vs veh, DEPTOR / RFU, CPM / Fold change vs veh, CPM / RFU, DNAJB6 / Fold change vs veh, DNAJB6 / RFU, CACNA2D3 / Fold change vs veh, CACNA2D3 / RFU, DTX4 / Fold change vs veh, DTX4 / RFU, TFCP2 / Fold change vs veh, TFCP2 / RFU, GMCL1 /// GMCL1P1 / Fold change vs veh, GMCL1 /// GMCL1P1 / RFU, AEBP2 / Fold change vs veh, AEBP2 / RFU, SNHG1 /// SNORD22 /// SNORD25 /// SNORD26 /// SNORD27 /// SNORD28 /// SNORD29 /// SNORD31 / Fold change vs veh, SNHG1 /// SNORD22 /// SNORD25 /// SNORD26 /// SNORD27 /// SNORD28 /// SNORD29 /// SNORD31 / Fold change (Aza/veh), C12orf56 (ProbeSet 11735607_a_at) / Fold change (ACY-1035/veh), C12orf56 (ProbeSet 11735607_a_at) / Fold change (Aza/veh), FGFR1OP (ProbeSet 11751329_s_at) / Fold change (ACY-1035/veh), FGFR1OP (ProbeSet 11751329_s_at) / Fold change (Aza/veh), VPS36 (ProbeSet 11739960_a_at) / Fold change (ACY-1035/veh), VPS36 (ProbeSet 11739960_a_at) / RFU SYPL1 (11715823_x_at) / Fold change /veh SYPL1 (11715823_x_at) / RFU IGFBP7 (11715501_s_at) / Fold change /veh IGFBP7 (11715501_s_at) / RFU REEP3 (11722064_at) / Fold change /veh REEP3 (11722064_at) / RFU IGLL1 (11728026_x_at) / Fold change /veh IGLL1 (11728026_x_at): dose or concentration left out as unconfirmed
Settings: MV-4-11 cells, 48 hours

Structure (SMILES): Nc1ccc(-c2cccs2)cc1NC(=O)c1ccc2c(c1)cc(C1CC1)n2CCN1CCOCC1 [ACY-1035]
- Fold change /veh CDHR5 (11726645_a_at): 1.11
